Test results from patent US20020142463A1, “Method for the mass propagation of adventitious roots of ginseng, camphor ginseng and wild ginseng by tissue culture and the improvement of their saponin content” (priority 2001, published 2002).

Tests used:
[1] = test system: root tissue of cultivated ginseng, camphor ginseng, and wild ginseng; assay: Effect of growth regulator pretreatment before culturing on saponin content and saponin ratio; type: cell-based; conditions: pretreatment 1-10 hours before culturing at 1-100 mg/L
Protocol: (§1) The measurement of saponin content was followed by the standard method for the analysis of ginseng constituent of The Korean Ginseng Research Institute.
Among growth regulators, BA(benzyl adenine) 2iP, zeatin, […], TDZ, kinetin which are included in cytokinin groups was treated 1-10 hours before culturing the root tissue of cultivated ginseng, camphor ginseng, and wild ginseng at the concentration of 1-100 mg/L. Immediate after the pretreatment the saponin and the diol:triol content were compared and analyzed.

[2] = test system: adventitious root of wild ginseng; assay: Effect of added growth regulator on adventitious root propagation (wild ginseng); type: cell-based; parameters: unit not given here; conditions: MS media, 3% sugar, pH6.0
Protocol: (§2) After adding 3% of sugar to the MS media and adjusting pH6.0, basal medium were made by adding 1 mg/L, 2 mg/L, 3 mg/L, 5 mg/L of each of the IBA, NAA and BSAA as auxin. These basal mediums were divided into a 1 L flask and a 5 L bioreactor.

[3] = test system: adventitious root of cultivated ginseng; assay: Effect of added growth regulator on adventitious root propagation (cultivated ginseng); type: cell-based, Panax ginseng C.A. Meyer; parameters: Cultivated ginseng (Increment rate of biomass): unit not given here; conditions: for Cultivated ginseng (Increment rate of biomass): MS media, 3% sugar, pH6.0
Protocol: as §2

[4] = test system: adventitious root of cultivate ginseng, camphor ginseng, wild ginseng; assay: Effect of jasmonic acid and methyl jasmonic acid treatment on the saponin content of adventitious root in balloon shape bioreactor; type: cell-based
Text: as §1
While culturing the adventitious root of cultivate ginseng, camphor ginseng, wild ginseng in a balloon shape bioreactor, the saponin content in the adventitious root was examined at the initial time, 10 days before harvest, and after harvest with the treatment of various concentrations of jasmonic acid and methyl jasmonic acid.
The experiment was conducted under the conditions of pH 6.0 and the MS media added with 3% sugar and 2.0 mg/L IBA.
The saponin content in the adventitious root was measured for the root treated by various concentrations of jamonic acid or methyl jamonic acid of 0, 1, 2, 5, 10 mg/L 10 days before harvest and the root washed by tap water obtained from the MS media not containing sugar or the treated root by tap water which includes jasmonic acid or methyl jasmonic acid, for one week.

For `CC(C)=CCNc1ncnc2nc[nH]c12` [2iP], the “remarks: effect on the saponin components” value (from here on “remarks: effect”) [1] was “zeatin show similar”.
With `c1ccc(CNc2ncnc3nc[nH]c23)cc1` [BA, benzyl adenine] the saponin content [1] was 1.23 and the triol/diol [1] was 1.63.
In the case of `O=C(O)Cc1c[se]c2ccccc12` [BSAA, benzo [b] selenienyl acetic acid], the “Wild ginseng (Increment rate of biomass)” value ([2]; growth regulator 1 mg/L) is reported as 5.0, the “Wild ginseng (Increment rate of biomass)” value ([2]; growth regulator 2 mg/L) is reported as 12.5 and the “Wild ginseng (Increment rate of biomass)” value ([2]; growth regulator 3 mg/L) is reported as 11.7. The “Wild ginseng (Increment rate of biomass)” value ([2]; growth regulator 5 mg/L) was 3.9, the “increment of the biomass (in words)” value ([3]; concentration of 2-3 mg/L, text summary of Table 1 (cultivated and wild ginseng)) was “remarkable increment” and the “Cultivated ginseng (Increment rate of biomass)” value (“Cultivated ginseng” for short) ([3]; growth regulator 1 mg/L) was 5.3. For the same molecule, the “Cultivated ginseng” value ([3]; growth regulator 2 mg/L) was 13.2, the “Cultivated ginseng” value ([3]; growth regulator 3 mg/L) was 11.4 and the “Cultivated ginseng” value ([3]; growth regulator 5 mg/L) was 4.8.
With `O=C(O)CCCc1c[nH]c2ccccc12` [IBA] the “Wild ginseng (Increment rate of biomass)” value ([2]; growth regulator 1 mg/L) was 4.3, the “Wild ginseng (Increment rate of biomass)” value ([2]; growth regulator 2 mg/L) was 6.8 and the “Wild ginseng (Increment rate of biomass)” value ([2]; growth regulator 3 mg/L) was 5.7. The “Wild ginseng (Increment rate of biomass)” value ([2]; growth regulator 5 mg/L) was 4.2, the “Cultivated ginseng” value ([3]; growth regulator 1 mg/L) was 4.5 and the “Cultivated ginseng” value ([3]; growth regulator 2 mg/L) was 6.7. For the same molecule, the “Cultivated ginseng” value ([3]; growth regulator 3 mg/L) was 6.5 and the “Cultivated ginseng” value ([3]; growth regulator 5 mg/L) was 3.8.
For `CC/C=C\C[C@H]1C(=O)CC[C@@H]1CC(=O)O` [Jasmonic acid, jasmonic acid], the “Ginsenoside content Rb Group” value ([4]; jasmonic acid 1 mg/L) was 13.29 mg. 1 g drymass, the “Ginsenoside content Rg Group” value ([4]; jasmonic acid 1 mg/L) was 2.83 mg. 1 g drymass and the “Ginsenoside content Total content” value ([4]; jasmonic acid 1 mg/L) was 16.09 mg. 1 g drymass. The Rb/Rg ([4]; jasmonic acid 1 mg/L) was 4.68, the “Ginsenoside content Rb Group” value ([4]; jasmonic acid 2 mg/L) was 24.19 mg. 1 g drymass and the “Ginsenoside content Rg Group” value ([4]; jasmonic acid 2 mg/L) was 4.46 mg. 1 g drymass. For the same molecule, the “Ginsenoside content Total content” value ([4]; jasmonic acid 2 mg/L) was 28.69 mg. 1 g drymass, the Rb/Rg ([4]; jasmonic acid 2 mg/L) was 5.45 and the “Ginsenoside content Rb Group” value ([4]; jasmonic acid 5 mg/L) was 34.69 mg. 1 g drymass. For the same molecule, the “Ginsenoside content Rg Group” value ([4]; jasmonic acid 5 mg/L) was 4.15 mg. 1 g drymass, the “Ginsenoside content Total content” value ([4]; jasmonic acid 5 mg/L) was 38.82 mg. 1 g drymass and the Rb/Rg ([4]; jasmonic acid 5 mg/L) was 8.43. The “Ginsenoside content Rb Group” value ([4]; jasmonic acid 10 mg/L) was 54.29 mg. 1 g drymass, the “Ginsenoside content Rg Group” value ([4]; jasmonic acid 10 mg/L) was 5.53 mg. 1 g drymass and the “Ginsenoside content Total content” value ([4]; jasmonic acid 10 mg/L) was 59.87 mg. 1 g drymass. For the same molecule, the Rb/Rg ([4]; jasmonic acid 10 mg/L) was 9.83.
For `O=C(O)Cc1cccc2ccccc12` [NAA, naphthalemeacetic acid], the “Wild ginseng (Increment rate of biomass)” value ([2]; growth regulator 1 mg/L) was 3.4, the “Wild ginseng (Increment rate of biomass)” value ([2]; growth regulator 2 mg/L) was 6.8 and the “Wild ginseng (Increment rate of biomass)” value ([2]; growth regulator 3 mg/L) was 6.2. The “Wild ginseng (Increment rate of biomass)” value ([2]; growth regulator 5 mg/L) was 3.8, the “Cultivated ginseng” value ([3]; growth regulator 1 mg/L) was 3.2 and the “Cultivated ginseng” value ([3]; growth regulator 2 mg/L) was 7.2. The “Cultivated ginseng” value ([3]; growth regulator 3 mg/L) was 6.7 and the “Cultivated ginseng” value ([3]; growth regulator 5 mg/L) was 4.2.
`O=C(Nc1ccccc1)Nc1cnns1` [TDZ] was tested, and the “remarks: effect” value [1] was “zeatin show similar”.
With `c1coc(CNc2ncnc3[nH]cnc23)c1` [kinetin] the “remarks: effect” value [1] was “zeatin show similar”.
Work on `CC/C=C\CC1C(=O)CCC1CC(=O)OC` (stereo not drawn) [methyl jasmonic acid] yielded a saponin content [1] of 6.50 and a triol/diol [1] of 2.40.
With `C/C(=C\CNc1ncnc2[nH]cnc12)CO` [zeatin] the “remarks: effect” value [1] was “zeatin show similar”.
For jasmonic acid, the saponin content [1] was 6.50 and the triol/diol [1] was 2.40.
